{"source": "paper PMC7887271", "about": "“Fast acting allosteric phosphofructokinase inhibitors block trypanosome glycolysis and cure acute African trypanosomiasis in mice” (Nature Communications, 2021)", "key": {"[1]": {"molecular_target": "T1, CYP2C19 (Homo sapiens, UniProt P33261)", "T1 construct": "purchased BD Biosciences", "T1 sequence (P33261 whole entry, canonical isoform)": "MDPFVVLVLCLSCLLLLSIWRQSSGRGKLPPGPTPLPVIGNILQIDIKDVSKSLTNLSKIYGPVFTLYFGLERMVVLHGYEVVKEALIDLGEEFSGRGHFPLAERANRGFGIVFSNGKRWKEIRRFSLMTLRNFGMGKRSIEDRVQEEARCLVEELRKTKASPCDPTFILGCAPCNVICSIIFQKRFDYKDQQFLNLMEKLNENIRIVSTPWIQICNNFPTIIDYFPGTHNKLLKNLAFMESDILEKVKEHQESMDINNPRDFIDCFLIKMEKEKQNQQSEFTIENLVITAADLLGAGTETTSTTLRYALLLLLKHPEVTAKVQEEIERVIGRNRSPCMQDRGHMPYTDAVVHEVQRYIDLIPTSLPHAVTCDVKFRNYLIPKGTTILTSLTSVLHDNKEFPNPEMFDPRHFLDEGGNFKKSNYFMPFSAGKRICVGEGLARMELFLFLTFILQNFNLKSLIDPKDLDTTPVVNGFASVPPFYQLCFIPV", "experiment": "Inhibition of CYP2C19", "type": "in vitro ADME", "conditions": "CYP450 isoform inhibition kit (BD Biosciences), probe CEC", "procedure": "A HepG2 cytotoxicity assay was used to determine a cellular selectivity index. HepG2 cells were seeded into 96-well plates in EMEM medium. Compounds were assessed for their effect upon cellular viability (Supplementary Methods 5.1). Inhibition of CYP450 was determined using kits from BD Biosciences (Supplementary Methods 5.2). Metabolic stability was determined using mouse […] tested at a single concentration of 5 µM. Plasma protein binding was determined using mouse and human plasma at a single concentration of 10 µM (Supplementary Methods 5.4). All PK studies in mice were carried out by Pharmidex (Supplementary Methods 6.1).\nThe compounds were investigated for their inhibitory effect on cytochrome P450 (CYP450) activity using five CYP450 isoforms (with fluorescent substrates in brackets): 3A4 (two substrates, BFC and DBF), 2D6 (AMMC), 2C9 (MFC), 2C19 (CEC) and 1A2 (CEC). Kits from BD Biosciences were used along with the method described by the manufacturer. […] Fluorescence was measured using a SpectraMax M5 plate reader."}, "[2]": {"experiment": "Pharmacokinetic studies in mice (IV and PO)", "type": "in vivo, female CD-1 mice", "conditions": "female, CD-1, plasma, mouse; for AUC(0-inf): read-out: AUC (infinity)", "procedure": "PK parameters for the lead compounds were determined using three mice per data point (Supplementary Methods 6.1).\nBlood samples were collected from terminal cardiac puncture at 0.08 (IV only), 0.25, 0.5, 1 (PO only), 2, 4, 8 and 24 hour time points. The whole blood was centrifuged to obtain plasma. Brains were also collected following cardiac perfusion from both sets of animals at 2 hours. Analysis of the biological samples was carried out by the company Selcia. Plasma proteins were precipitated by addition of PBS (1 volume) followed by 3 volumes of acetonitrile containing internal standard (verapamil). Following filtration through a protein precipitation plate the eluent was dried under nitrogen and re-suspended in mobile phase prior to analysis. Individual brains were homogenised in PBS and diluted to 10% w/v and divided into aliquots consisting of brain homogenate (1 volume, 0.3 ml) and 3 volumes (0.9 ml) of acetonitrile containing internal standard. Samples were centrifuged and supernatants removed and taken through a protein precipitation plate alongside an appropriate standard. Eluents were dried under nitrogen and re-suspended in mobile phase prior to analysis. Eluents were analysed by LC-MS/MS using a Phenomenex Gemini NX column (C18,30 x 2.1 mm, 3 micron). Analysis of the data was carried out using PK solutions software."}, "[3]": {"system": "T. b. brucei Lister 427", "experiment": "Mouse model of stage 1 HAT", "type": "in vivo, T. b. brucei in female CD-1 mice", "conditions": "three oral 50 mg kg^−1 doses 2 h apart daily over 2 days, n = 5", "procedure": "T. b. brucei Lister 427 infection is cured by 1-day dosing. […] These parasites have a doubling time of ~6 h and infection with 1 × 10^5 parasites usually requires euthanasia of mice within 4–5 days of infection in the absence of drug treatment. Drug efficacy is determined by taking regular blood samples from infected mice and checking microscopically for parasitaemia. In this model of acute infection a single surviving parasite should proliferate to reach detectable levels in ~5 days and a 30-day period of no parasite detection is considered as cure.\nFor the mouse model of stage 1 HAT T. b. brucei Lister 427 parasites (1 × 10^5) were injected into a single donor female CD-1 mouse (University of Edinburgh; 6–8 weeks old) intraperitoneally in D-PBS containing 10 mM glucose. Parasites for subsequent stage 1 HAT infection were obtained from whole blood via cardiac puncture, under gaseous isoflurane anaesthesia. Parasites (1 × 10^3) harvested from the donor mouse were then injected into the peritoneum of female CD-1 mice (University of Edinburgh; 6–8 weeks old) in D-PBS containing 10 mM glucose. One day after infection, animals were either left untreated (n = 3) or dosed orally by gavage (n = 5) with CTCB compound in Cremophor EL: EtOH: D-PBS (30:10:60 v/v; Supplementary Methods 6.3).\nT. b. brucei Lister 427 parasites (1 x 10^5) were injected into a single donor female CD-1 mouse (University of Edinburgh; 6-8 weeks old) intraperitoneally in D-PBS containing 10 mM glucose. Parasites for subsequent Stage 1 HAT infection were obtained from whole blood via cardiac puncture, under gaseous isoflurane anaesthesia as described above. Parasites (1 x 10^3) harvested from the donor mouse were then injected into the peritoneum of female CD-1 mice (University of Edinburgh; 6-8 weeks old) in D-PBS containing 10mM glucose. One day after infection, animals were either left untreated (n=3) or dosed orally by gavage (n=5) with CTCB compound in Cremophor EL: EtOH : D-PBS (30:10:60 v/v). The veterinary trypanocidal drug pentamidine isethionate (2.5 mg/kg for 4 consecutive days after infection) was administered intraperitoneally as control (n=3) for parasite elimination. Mice were monitored daily for parasitaemia day 1 post-infection onwards. Trypanosomes were quantified in blood samples from the tail vein by microscopy as previously described (12). Animals were sacrificed on the day that parasites were first detected in blood samples. (Supplementary Figure 11)"}}, "note": "Like-named read-outs stand apart in the source and are kept apart here.", "data": [{"smiles": "CN(C)CCn1ccc2c(ccn2Cc2ccc(Cl)c(Br)c2)c1=O", "note": "[CTCB-470, 1-[(3-Bromo-4-chlorophenyl)methyl]-5-[2-(dimethylamino)ethyl] pyrrolo[3,2-c]pyridin-4-one]", "values": [{"measurement": "inhibition at 10 µM", "setting": "[1]", "value": 45, "unit": "%"}, {"measurement": "AUC(0-inf)", "setting": "[2]; IV 1 mg kg^−1", "value": 657, "unit": "ng·h/mL"}, {"measurement": "clearance", "setting": "[2]; IV 1 mg kg^−1, read-out: CL/kg (converted)", "value": 25, "unit": "mL/min/kg"}, {"measurement": "half-life", "setting": "[2]; IV 1 mg kg^−1, read-out: Elimination t1/2 (converted)", "value": 3.1, "unit": "h"}, {"measurement": "Vd", "setting": "[2]; IV 1 mg kg^−1, read-out: Vd (area)", "value": 6.9, "unit": "L/kg"}, {"measurement": "Cmax", "setting": "[2]; PO 10 mg kg^−1", "value": 393, "unit": "ng/mL"}, {"measurement": "Tmax", "setting": "[2]; PO 10 mg kg^−1", "value": 0.5, "unit": "h"}, {"measurement": "AUC(0-inf)", "setting": "[2]; PO 10 mg kg^−1", "value": 1560, "unit": "ng·h/mL"}, {"measurement": "bioavailability", "setting": "[2]; PO 10 mg kg^−1 vs IV 1 mg kg^−1, read-out: Bioavailability (F%)", "value": 24, "unit": "%"}, {"measurement": "outcome of treatment", "setting": "[3]", "value": "either complete clearance or a significant increase in survival"}]}]}
